What was measured:
Format in all cases: in vivo
Details in all cases: 250 g/h, evaluated after 13 days
[1] = test system: Avena fatua (AVEFA); experiment: Pre-emergence herbicidal glasshouse test, percentage damage
In short: (§1)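 Spray: 250 g/h, aqueous acetone/water 50:50 + 0.5% Tween 20; pre-em 1 d after sowing, post-em at 8 d. Glasshouse 24/16 °C, 14 h light, 65% RH, watered twice daily. Read % damage at 13 d, scored 1–5 (5=80-100%).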

[2] = test system: Setaria faberi (SETFA); experiment: as above
In short: as §1

[3] = test system: Lolium perenne (LOLPE); experiment: as above
In short: as §1

[4] = test system: Alopecurus myosuroides (ALOMY); experiment: as above
In short: as §1

[5] = test system: Echinochloa crus-galli (ECHCG); experiment: as above
In short: as §1

[6] = test system: Avena fatua (AVEFA); experiment: Post-emergence herbicidal glasshouse test, percentage damage
In short: as §1

[7] = test system: Lolium perenne (LOLPE); experiment: as above
In short: as §1

[8] = test system: Alopecurus myosuroides (ALOMY); experiment: as above
In short: as §1

[9] = test system: Echinochloa crus-galli (ECHCG); experiment: as above
In short: as §1

[10] = test system: Setaria faberi (SETFA); experiment: as above
In short: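 Percentage damage was scored 13 days after treatment on a five-point scale (1=0-19% to 5=80-100%). Treatments were post-emergence sprays on 8-day-old wheat, barley and SETFA plants in a glasshouse (24/16 °C day/night, 14 h light, 65% humidity), using acetone/water 50:50 with 0.5% Tween 20 at the stated rates. Wheat additionally received cloquintocet-mexyl safener at 50 g/ha.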

Row | Structure (SMILES) | AVEFA PRE percentage damage (five point scale) [1] | SETFA PRE percentage damage (five point scale) [2] | LOLPE PRE percentage damage (five point scale) [3] | ALOMY PRE percentage damage (five point scale) [4] | ECHCG PRE percentage damage (five point scale) [5] | AVEFA POST percentage damage (five point scale) [6] | LOLPE POST percentage damage (five point scale) [7] | ALOMY POST percentage damage (five point scale) [8] | ECHCG POST percentage damage (five point scale) [9] | SETFA POST percentage damage (five point scale) [10]
1 | CC#Cc1cc(C)c(C2C(=O)CC3(CCN(C(=O)COC(C)C)CC3)CC2=O)c(C)c1 [Compound A171] | 5 (5=80-100%) | 5 (5=80-100%) | 5 (5=80-100%) | 5 (5=80-100%) | 5 (5=80-100%) | 5 (5=80-100%) | 5 (5=80-100%) | 5 (5=80-100%) | 5 (5=80-100%) | 5 (5=80-100%)
2 | CC#Cc1cc(C)c(C2=C(OC(=O)c3ccccc3F)CC3(CCN(C(=O)c4ccccc4F)CC3)CC2=O)c(C)c1 [Compound P20] | 3 (3=40-59%) | 5 (5=80-100%) | 5 (5=80-100%) | 5 (5=80-100%) | 5 (5=80-100%) | 5 (5=80-100%) | 5 (5=80-100%) | 5 (5=80-100%) | 5 (5=80-100%) | 5 (5=80-100%)
3 | CC#Cc1cc(C)c(C2C(=O)CC3(CCN(C(=O)[C@@H](C)OC)CC3)CC2=O)c(C)c1 [Compound A154] | 5 (5=80-100%) | 5 (5=80-100%) | 5 (5=80-100%) | 5 (5=80-100%) | 5 (5=80-100%) | 5 (5=80-100%) | 5 (5=80-100%) | 5 (5=80-100%) | 5 (5=80-100%) | 5 (5=80-100%)
4 | CC#Cc1cc(C)c(C2C(=O)CC3(CCN(C(=O)NC(C)=O)CC3)CC2=O)c(C)c1 [Compound A71] | 5 (5=80-100%) | 5 (5=80-100%) | 5 (5=80-100%) | 5 (5=80-100%) | 5 (5=80-100%) | 5 (5=80-100%) | 5 (5=80-100%) | 5 (5=80-100%) | 5 (5=80-100%) | 5 (5=80-100%)
5 | CC#Cc1cc(C)c(C2C(=O)CC3(CCN(C(=O)COC(F)(F)F)CC3)CC2=O)c(C)c1 [Compound A199] | 5 (5=80-100%) | 5 (5=80-100%) | 5 (5=80-100%) | 5 (5=80-100%) | 5 (5=80-100%) | 5 (5=80-100%) | 5 (5=80-100%) | 5 (5=80-100%) | 5 (5=80-100%) | 5 (5=80-100%)
6 | CC#Cc1cc(C)c(C2C(=O)CC3(CCN(C(=O)CC#N)CC3)CC2=O)c(OC)c1 [Compound A80] | 5 (5=80-100%) | 5 (5=80-100%) | 5 (5=80-100%) | 5 (5=80-100%) | 5 (5=80-100%) | 5 (5=80-100%) | 5 (5=80-100%) | 5 (5=80-100%) | 5 (5=80-100%) | 5 (5=80-100%)
7 | CC#Cc1cc(C)c(C2C(=O)CC3(CCN(S(=O)(=O)C4CC4)CC3)CC2=O)c(C)c1 [Compound A82] | 5 (5=80-100%) | 5 (5=80-100%) | 5 (5=80-100%) | 5 (5=80-100%) | 5 (5=80-100%) | 5 (5=80-100%) | 5 (5=80-100%) | 5 (5=80-100%) | 5 (5=80-100%) | 5 (5=80-100%)
8 | CC#Cc1cc(C)c(C2C(=O)CC3(CCN(C(=O)[C@H](C)OC)CC3)CC2=O)c(C)c1 [Compound A153] | 5 (5=80-100%) | 5 (5=80-100%) | 5 (5=80-100%) | 5 (5=80-100%) | 5 (5=80-100%) | 5 (5=80-100%) | 5 (5=80-100%) | 5 (5=80-100%) | 5 (5=80-100%) | 5 (5=80-100%)
9 | CC#Cc1cc(C)c(C2C(=O)CC3(CCN(C(=O)NC(=O)c4cccc(F)n4)CC3)CC2=O)c(C)c1 [Compound A159] | 5 (5=80-100%) | 5 (5=80-100%) | 5 (5=80-100%) | 5 (5=80-100%) | 5 (5=80-100%) | 5 (5=80-100%) | 5 (5=80-100%) | 5 (5=80-100%) | 5 (5=80-100%) | 5 (5=80-100%)
10 | CC#Cc1cc(C)c(C2=C(OC(=O)OC)CC3(CCN(C(=O)NC4CC4)CC3)CC2=O)c(C)c1 [Compound P15] | 5 (5=80-100%) | 5 (5=80-100%) | 5 (5=80-100%) | 5 (5=80-100%) | 5 (5=80-100%) | 5 (5=80-100%) | 5 (5=80-100%) | 5 (5=80-100%) | 5 (5=80-100%) | 5 (5=80-100%)
11 | CC#Cc1cc(C)c(C2C(=O)CC3(CCN(C(=O)c4ccccn4)CC3)CC2=O)c(OC)c1 [Compound A74] | 5 (5=80-100%) | 5 (5=80-100%) | 5 (5=80-100%) | 5 (5=80-100%) | 5 (5=80-100%) | 5 (5=80-100%) | 5 (5=80-100%) | 5 (5=80-100%) | 5 (5=80-100%) | 5 (5=80-100%)
12 | CC#Cc1cc(C)c(C2C(=O)CC3(CCN(C(=O)NC(C)(C)C)CC3)CC2=O)c(OC)c1 [Compound A76] | 5 (5=80-100%) | 5 (5=80-100%) | 5 (5=80-100%) | 5 (5=80-100%) | 5 (5=80-100%) | 5 (5=80-100%) | 5 (5=80-100%) | 5 (5=80-100%) | 5 (5=80-100%) | 5 (5=80-100%)
13 | CC#Cc1cc(C)c(C2=C(OC(C)=O)CC3(CCN(C(=O)NC(C)=O)CC3)CC2=O)c(C)c1 [Compound P12] | 4 (4=60-79%) | 5 (5=80-100%) | 5 (5=80-100%) | 4 (4=60-79%) | 5 (5=80-100%) | 5 (5=80-100%) | 5 (5=80-100%) | 5 (5=80-100%) | 5 (5=80-100%) | 5 (5=80-100%)
14 | CC#Cc1cc(C)c(C2=C(OC(=O)c3ccccc3)CC3(CCN(C(=O)c4ccccc4)CC3)CC2=O)c(C)c1 [Compound P2] | 5 (5=80-100%) | 5 (5=80-100%) | 5 (5=80-100%) | 5 (5=80-100%) | 5 (5=80-100%) | 5 (5=80-100%) | 5 (5=80-100%) | 5 (5=80-100%) | 5 (5=80-100%) | 5 (5=80-100%)
